Reference: PubChem BioAssay (NCI)
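All cell lines were grown in 96-well plates and treated with compound for 48 hours. Here, GI50 denotes the concentration required for 50% inhibition of growth. TGI: concentration producing complete growth inhibition.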

How the values were obtained:
Assay in all cases: NCI anticancer screen, dose series, 48 h
786-0 renal = system: 786-0 renal
A498 renal = system: A498 renal
ACHN renal = system: ACHN renal
HCT-116 colon = system: HCT-116 colon
HCT-15 colon = system: HCT-15 colon
HOP-62 NSCLC = system: HOP-62 NSCLC
SNB-19 CNS = system: SNB-19 CNS
U251 CNS = system: U251 CNS
SF-539 CNS = system: SF-539 CNS
HOP-92 NSCLC = system: HOP-92 NSCLC

Which results are given for `O=c1cccccc1NCCOCCNc1cccccc1=O`?
TGI (786-0 renal): > 100 µM; TGI (A498 renal): > 100 µM; TGI (ACHN renal): > 100 µM; TGI (HCT-116 colon): > 100 µM; TGI (HCT-15 colon): > 100 µM; TGI (HOP-62 NSCLC): > 100 µM; TGI (SNB-19 CNS): > 100 µM; TGI (U251 CNS): > 100 µM

For `CC(C)(C)NC(C1=CC(C)(C)c2ccccc2C1=O)c1ccccc1` (stereo not drawn), which GI50 (786-0 renal) is on record?
Its GI50 is 1.75 µM.

What about the TGI (786-0 renal) of the same compound?
Its TGI is 3.13 µM.

And the GI50 (A498 renal)?
The GI50 was 1.87 µM.

And the TGI (A498 renal)?
The TGI was 6.37 µM.

And the GI50 (ACHN renal)?
The GI50 was 1.49 µM.

What about the TGI (ACHN renal) of the same compound?
Its TGI is 2.82 µM.

And the GI50 (HCT-116 colon)?
The GI50 was 1.35 µM.

And the TGI (HCT-116 colon)?
Its TGI is 2.64 µM.

And the GI50 (HCT-15 colon)?
Its GI50 is 1.29 µM.

What about the TGI (HCT-15 colon) of the same compound?
The TGI was 2.68 µM.

What about the GI50 (HOP-62 NSCLC) of the same compound?
The GI50 was 2.16 µM.

What about the TGI (HOP-62 NSCLC) of the same compound?
The TGI was 4.84 µM.

And the GI50 (SF-539 CNS)?
The GI50 was 1.66 µM.

What about the TGI (SF-539 CNS) of the same compound?
Its TGI is 3.02 µM.

And the GI50 (SNB-19 CNS)?
The GI50 was 3.36 µM.

What about the TGI (SNB-19 CNS) of the same compound?
The TGI was 14.2 µM.

What about the GI50 (U251 CNS) of the same compound?
Its GI50 is 1.54 µM.

What about the TGI (U251 CNS) of the same compound?
Its TGI is 2.87 µM.

For `COc1cc2c3c(n(CCCCOC(=O)C(F)(F)F)c(=O)c2cc1OC)-c1cc2c(cc1C3=O)OCO2`, which GI50 (786-0 renal) is on record?
The GI50 was 0.982 µM.

What about the TGI (786-0 renal) of the same compound?
The TGI was 7.65 µM.

What about the GI50 (A498 renal) of the same compound?
The GI50 was over 44.4 µM.

What about the TGI (A498 renal) of the same compound?
The TGI was over 100 µM.

And the GI50 (ACHN renal)?
The GI50 was over 48.3 µM.

What about the TGI (ACHN renal) of the same compound?
Its TGI is over 100 µM.

What about the GI50 (HCT-15 colon) of the same compound?
Its GI50 is over 100 µM.

What about the TGI (HCT-15 colon) of the same compound?
Its TGI is over 100 µM.

What about the GI50 (HOP-62 NSCLC) of the same compound?
Its GI50 is 10.4 µM.

What about the GI50 (HOP-92 NSCLC) of the same compound?
Its GI50 is over 82.9 µM.

And the TGI (HOP-92 NSCLC)?
The TGI was over 100 µM.

And the GI50 (SF-539 CNS)?
The GI50 was over 100 µM.

And the TGI (SF-539 CNS)?
Its TGI is over 100 µM.

What about the GI50 (SNB-19 CNS) of the same compound?
The GI50 was over 100 µM.

What about the TGI (SNB-19 CNS) of the same compound?
Its TGI is over 100 µM.

What about the GI50 (U251 CNS) of the same compound?
Its GI50 is over 38.8 µM.

What about the TGI (U251 CNS) of the same compound?
The TGI was over 100 µM.

Which results are given for `COc1ccc(C(=O)C(c2ccc(OC)cc2)C2(O)C(=O)Nc3ccccc32)cc1` (stereo not drawn)?
TGI (786-0 renal): > 100 µM; TGI (ACHN renal): > 100 µM; TGI (HCT-116 colon): > 100 µM; TGI (HCT-15 colon): > 100 µM; TGI (HOP-92 NSCLC): > 100 µM; TGI (SF-539 CNS): > 100 µM; TGI (SNB-19 CNS): > 100 µM; TGI (U251 CNS): > 100 µM

`CN(C)CCNC(=O)c1cc2ccccc2c2nc3ccccc3nc12` was tested. Which TGI (786-0 renal) did it give?
Its TGI is over 38.2 µM.

And the TGI (A498 renal)?
Its TGI is 2.4 µM.

And the TGI (ACHN renal)?
Its TGI is 2.1 µM.

And the TGI (HCT-116 colon)?
Its TGI is 1.87 µM.

What about the TGI (HCT-15 colon) of the same compound?
The TGI was 3.24 µM.

What about the TGI (HOP-62 NSCLC) of the same compound?
The TGI was 5 µM.

And the TGI (SF-539 CNS)?
The TGI was 1.55 µM.

And the TGI (SNB-19 CNS)?
The TGI was 8.2 µM.

What about the TGI (U251 CNS) of the same compound?
Its TGI is 4.92 µM.

Which results are given for `Oc1ccccc1-c1nn(CNc2cccc(Cl)c2)c(=S)o1`?
GI50 (786-0 renal): 67.3 µM; TGI (786-0 renal): > 100 µM; GI50 (A498 renal): 60.1 µM; TGI (A498 renal): > 100 µM; GI50 (HCT-116 colon): 25.3 µM; TGI (HCT-116 colon): > 100 µM; GI50 (HOP-62 NSCLC): 90.8 µM; TGI (HOP-62 NSCLC): > 100 µM; GI50 (HOP-92 NSCLC): 1.86 µM; TGI (HOP-92 NSCLC): 31.7 µM; GI50 (SF-539 CNS): 27.6 µM; TGI (SF-539 CNS): > 100 µM; GI50 (SNB-19 CNS): > 100 µM; TGI (SNB-19 CNS): > 100 µM; GI50 (U251 CNS): 4.91 µM; TGI (U251 CNS): 39.6 µM

How did the GI50 (786-0 renal) turn out when `CCN(CC)CCCC(C)Nc1cnc(C(=O)Nc2ccc(Cl)c3cccnc23)cn1` (stereo not drawn) was run?
The GI50 was 1.4 µM.

And the TGI (786-0 renal)?
The TGI was 2.87 µM.

What about the GI50 (A498 renal) of the same compound?
Its GI50 is 5.48 µM.

And the TGI (A498 renal)?
The TGI was 19.5 µM.

And the GI50 (ACHN renal)?
The GI50 was 1.73 µM.

And the TGI (ACHN renal)?
The TGI was 3.31 µM.

What about the GI50 (HCT-15 colon) of the same compound?
The GI50 was 2.29 µM.

What about the TGI (HCT-15 colon) of the same compound?
Its TGI is 6.3 µM.

And the GI50 (HOP-62 NSCLC)?
The GI50 was 1.77 µM.

What about the TGI (HOP-62 NSCLC) of the same compound?
The TGI was 3.61 µM.

And the GI50 (HOP-92 NSCLC)?
Its GI50 is 1.18 µM.

What about the TGI (HOP-92 NSCLC) of the same compound?
Its TGI is 2.82 µM.

What about the GI50 (SF-539 CNS) of the same compound?
The GI50 was 1.71 µM.

And the TGI (SF-539 CNS)?
The TGI was 3.12 µM.

What about the GI50 (SNB-19 CNS) of the same compound?
Its GI50 is 3.37 µM.

And the TGI (SNB-19 CNS)?
Its TGI is 13.9 µM.

What about the GI50 (U251 CNS) of the same compound?
Its GI50 is 1.93 µM.

What about the TGI (U251 CNS) of the same compound?
Its TGI is 3.83 µM.

`COc1ccc(C(=O)OCC2OC(n3cnc4c(=S)nc[nH]c43)C(OC(=O)c3ccc(OC)cc3)C2OC(=O)c2ccc(OC)cc2)cc1` (stereo not drawn) was tested. Which TGI (786-0 renal) did it give?
The TGI was over 100 µM.

What about the TGI (ACHN renal) of the same compound?
Its TGI is over 100 µM.

And the TGI (HCT-116 colon)?
Its TGI is over 100 µM.

And the TGI (HCT-15 colon)?
Its TGI is over 100 µM.

And the TGI (HOP-62 NSCLC)?
The TGI was over 100 µM.

What about the TGI (HOP-92 NSCLC) of the same compound?
Its TGI is over 100 µM.

And the TGI (SF-539 CNS)?
The TGI was over 100 µM.

What about the TGI (SNB-19 CNS) of the same compound?
Its TGI is over 100 µM.

What about the TGI (U251 CNS) of the same compound?
Its TGI is over 100 µM.
